Experimental data: patent US20050175599A1, “Process for producing substance” (Kyowa Hakko Kogyo Co., Ltd., priority 2001, published 2005)

Test system: transformant cell line 503LCA500D (derived from CHO/DG44) producing chimeric anti-CCR4 antibody
Assay: Fed-batch culture of antibody-producing cells with Q10-containing feed medium (Example 3)
Format: cell-based, Chinese hamster
Conditions: for cumulative number of cells on the completion of culturing: Q10-free culture 3.94×10^7; for relative specific antibody production rate: Q10-free culture = 100%
Experimental: Lens culinaris agglutinin (hereinafter abbreviated as LCA) resistant cell line CHO-LCA, which is derived from Chinese hamster ovary cell line CHO/DG44, was prepared by the method described in WO 02/31140, and chimeric anti-CCR4 antibody expression vector pCANTEX 2160 (WO 01/64754) was transfected into this cell line. Then, amethotrexate (MTX)-resistant cell was selected for gene amplification to obtain transformant cell line 503LCA500D (FERM BP-8239) producing chimeric anti-CCR4 antibody. The following fed-batch culture was performed using this cell line 503LCA500D. 503LCA500D was deposited as FERM BP-8239 in International Patent Organism Depositary, National Institute of Advanced Industrial Science and Technology (AIST Tsukuba Central 6, 1-1-1 Higashi, Tsukuba, Ibaraki, Japan) as of Nov. 20, 2002.
The cells were inoculated in a 250-mL conical flask containing 50 mL of a serum-free medium. (EX-CELL 302 medium, manufactured by JRH Biosciences) to a cell density of 3×10^5 cells/mL, followed by spinner culture at 100 rpm at 37° C.
In Q10-added cultures, 0.5 mL or 1 mL of a health drink SANOMIT (manufactured by MSE Pharmazeutica GmbH) comprising Q10, water, glycerin, ethanol and lecithin was added to 20 mL of an animal-protein-material-free feed medium comprising amino acids (0.22 g/L L-alanine, 0.74 g/L L-arginine monohydrochloride, 0.22 g/LL-asparagine (anhydrous), 0.26 g/L L-aspartic acid, 0.8 g/L L-cystine dihydrochloride, 0.66 g/L L-glutamic acid, 7.34 g/L L-glutamine, 0.26 g/L glycine, 0.37 g/L L-histidine monohydrochloride dihydrate, 0.92 g/L L-isoleucine, 0.92 g/L L-leucine, 1.29 g/L L-lysine monohydrochloride, 0.26 g/L L-methionine, 0.58 g/L L-phenylalanine, 0.35 g/L L-proline, 0.37 g/L L-serine, 0.84 g/L L-threonine, 0.14 g/L L-tryptophan, 0.92 g/L L-tyrosine disodium dihydrate, and 0.83 g/LL-valine), vitamins (0.11 mg/L d-biotin, 0.035 g/L calcium D-pantothenate, 0.035 g/L choline chloride, 0.035 g/L folic acid, 0.063 g/L myo-inositol, 0.035 g/L niacin amide, 0.035 g/L pyridoxal hydrochloride, 0.0035 g/L riboflavin, 0.035 g/L thiamine hydrochloride, and 0.00011 mg/L cyanocobalamine), 0.0251 g/L ethanolamine, 0.314 g/L insulin, 8 g/L soybean hydrolysate HY-SOY (manufactured by Quest International), 0.05 g/L ethylenediaminetetraacetic acid ferric sodium salt (manufactured by Sigma-Aldrich Co.), and 2 mL cholesterol lipid concentrate (1,000×aqueous solution, manufactured by Invitrogen Corp.). The concentrations of Q10 in the feed media after addition of SANOMIT were 1,563 μmol/L and 3,125 μmol/L respectively. […]

For COC1=C(OC)C(=O)C(C/C=C(\C)CC/C=C(\C)CC/C=C(\C)CC/C=C(\C)CC/C=C(\C)CC/C=C(\C)CC/C=C(\C)CC/C=C(\C)CC/C=C(\C)CCC=C(C)C)=C(C)C1=O [Q10], the “cumulative number of cells on the completion of culturing” value (Q10-added culture 1, 121 to 393 μmol/L Q10 in the medium (SANOMIT in feed), fed-batch 13 days) was 3.64×10^7 cells/mL×days, the “relative specific antibody production rate” value (Q10-added culture 1, 121 to 393 μmol/L Q10 in the medium, fed-batch 13 days) was 128.8% and the “cumulative number of cells on the completion of culturing” value (Q10-added culture 2, 242 to 786 μmol/L Q10 in the medium (SANOMIT in feed), fed-batch 15 days) was 2.00×10^7 cells/mL×days. For the same compound, the “relative specific antibody production rate” value (Q10-added culture 2, 242 to 786 μmol/L Q10 in the medium, fed-batch 15 days) was 149.1%.
